Laboratory results as given in patent US8791148B2, “Substituted benzimidazolone derivatives, medicaments comprising them and their use” (AbbVie Deutschland GmbH & Co. KG, priority 2006, dated 2014).

Target: T1, human vasopressin V1b receptor (Homo sapiens, UniProt P47901)
T1 construct: expressed in transfected cells; host or cells: CHO-K1 (cell line hV1b-3H2_CHO), membrane preparation
T1 sequence (P47901 1-424): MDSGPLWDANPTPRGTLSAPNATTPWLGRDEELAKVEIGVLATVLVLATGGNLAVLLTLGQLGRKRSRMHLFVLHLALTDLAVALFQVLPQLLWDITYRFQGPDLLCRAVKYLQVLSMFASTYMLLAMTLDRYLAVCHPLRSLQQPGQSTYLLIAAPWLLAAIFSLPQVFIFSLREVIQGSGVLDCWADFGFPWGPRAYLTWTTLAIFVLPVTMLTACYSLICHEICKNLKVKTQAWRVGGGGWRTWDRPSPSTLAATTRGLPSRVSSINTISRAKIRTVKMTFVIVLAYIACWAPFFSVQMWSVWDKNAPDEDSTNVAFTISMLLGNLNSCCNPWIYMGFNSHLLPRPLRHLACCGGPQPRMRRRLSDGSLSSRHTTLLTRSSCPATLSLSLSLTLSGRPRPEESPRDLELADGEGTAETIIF
Assay: Vasopressin V1b receptor binding assay
Conditions: membranes from CHO-K1 cells with stably expressed human V1b receptors; displacement of 1.5 nM 3H-AVP; read-out: V1b receptor affinity (affinity constant Ki)
In short: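 Ki values come from nonlinear regression of triplicate scintillation counts after filtration. Test compound (2% DMSO in the mixture) and radioligand were incubated 60 min at room temperature with human V1b membranes in pH 7.4 Tris buffer with 10 mM MgCl2 and 0.1% BSA. Nonspecific binding was set with 1 uM AVP.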

| Structure (SMILES) | Ki [nM] |
| --- | --- |
| COc1ccc(S(=O)(=O)n2c(=O)n(C(C(=O)N3CC[C@@H](N)C3)c3ccccc3)c3cc(Cl)ccc32)cc1 (stereo partly drawn) [Example 169, 3-[2-((R)-3-Aminopyrrolidin-1-yl)-2-oxo-1-phenylethyl]-5-chloro-1-(4-methoxybenzenesulfonyl)-1,3-dihydrobenzimidazol-2-one] | 500 to 10000 |
| COc1ccc(S(=O)(=O)n2c(=O)n(C(C(=O)N3CCCC(N)C3)c3ccccc3)c3cc(C#N)ccc32)cc1 (stereo not shown) [Example 170, 3-[2-(3-Aminopiperidin-1-yl)-2-oxo-1-phenylethyl]-1-(4-methoxybenzenesulfonyl)-2-oxo-2,3-dihydro-1H-benzimidazole-5-carbonitrile] | 500 to 10000 |
| COc1ccc(S(=O)(=O)n2c(=O)n(C(C(=O)N3CC[C@H](N)C3)c3ccccc3)c3cc(C#N)ccc32)cc1 (stereo partly drawn) [Example 171, 3-[2-((S)-3-Aminopyrrolidin-1-yl)-2-oxo-1-phenylethyl]-1-(4-methoxybenzenesulfonyl)-2-oxo-2,3-dihydro-1H-benzimidazole-5-carbonitrile] | 500 to 10000 |
| COc1ccc(S(=O)(=O)n2c(=O)n(C(C(=O)N3CC[C@@H](N)C3)c3ccccc3)c3cc(C#N)ccc32)cc1 (stereo partly drawn) [Example 172, 3-[2-((R)-3-Aminopyrrolidin-1-yl)-2-oxo-1-phenylethyl]-1-(4-methoxybenzenesulfonyl)-2-oxo-2,3-dihydro-1H-benzimidazole-5-carbonitrile] | 500 to 10000 |
| COc1ccc(S(=O)(=O)n2c(=O)n(C(C(=O)N[C@H]3CCNC3)c3ccccc3)c3cc(Cl)ccc32)cc1 (stereo partly drawn) [Example 173, 2-[6-Chloro-3-(4-methoxybenzenesulfonyl)-2-oxo-2,3-dihydrobenzimidazol-1-yl]-2-phenyl-N—(S)-pyrrolidin-3-ylacetamide] | 500 to 10000 |
| COc1ccc(S(=O)(=O)n2c(=O)n(C(C(=O)N[C@@H]3CCNC3)c3ccccc3)c3cc(Cl)ccc32)cc1 (stereo partly drawn) [Example 174, 2-[6-Chloro-3-(4-methoxybenzenesulfonyl)-2-oxo-2,3-dihydrobenzimidazol-1-yl]-2-phenyl-N—(R)-pyrrolidin-3-ylacetamide] | 500 to 10000 |
| COc1ccc(S(=O)(=O)n2c(=O)n(C(C(=O)N3CCC(NC4CCNCC4)C3)c3ccccc3)c3cc(Cl)ccc32)cc1 (stereo not shown) [Example 175, 5-Chloro-1-(4-methoxybenzenesulfonyl)-3-{2-oxo-1-phenyl-2-[3-(piperidin-4-ylamino)pyrrolidin-1-yl]ethyl}-1,3-dihydrobenzimidazol-2-one] | < 100 |
| COc1ccc(S(=O)(=O)n2c(=O)n(C(C(=O)N3CC[C@@H](NC4CCNCC4)C3)c3ccccc3)c3cc(Cl)ccc32)cc1 (stereo partly drawn) [Example 176, 5-Chloro-1-(4-methoxybenzenesulfonyl)-3-{2-oxo-1-phenyl-2-[(R)-3-(piperidin-4-ylamino)pyrrolidin-1-yl]ethyl}-1,3-dihydrobenzimidazol-2-one] | < 100 |
| COc1ccc(S(=O)(=O)n2c(=O)n(C(C(=O)N3CC[C@H](NC4CCNCC4)C3)c3ccccc3)c3cc(Cl)ccc32)cc1 (stereo partly drawn) [Example 177, 5-Chloro-1-(4-methoxybenzenesulfonyl)-3-{2-oxo-1-phenyl-2-[(S)-3-(piperidin-4-ylamino)pyrrolidin-1-yl]ethyl}-1,3-dihydrobenzimidazol-2-one] | < 100 |
| COc1ccc(S(=O)(=O)n2c(=O)n(C(C(=O)N3CC[C@H](N4CCN(C(C)C)CC4)C3)c3ccccc3)c3cc(C#N)ccc32)cc1 (stereo partly drawn) [Example 189, 3-{2-[(S)-3-(4-Isopropylpiperazin-1-yl)pyrrolidin-1-yl]-2-oxo-1-phenylethyl}-1-(4-methoxybenzenesulfonyl)-2-oxo-2,3-dihydro-1H-benzimidazole-5-carbonitrile] | < 100 |
| CCCN1CCN([C@H]2CCCN(C(=O)C(c3ccccc3)n3c(=O)n(S(=O)(=O)c4ccc(OC)cc4)c4ccc(C#N)cc43)C2)CC1 (stereo partly drawn) [Example 191, 1-(4-Methoxybenzenesulfonyl)-2-oxo-3-{2-oxo-1-phenyl-2-[(S)-3-(4-propylpiperazin-1-yl)piperidin-1-yl]ethyl}-2,3-dihydro-1H-benzimidazole-5-carbonitrile] | < 100 |
| COc1ccc(S(=O)(=O)n2c(=O)n(C(C(=O)N3CCC[C@H](N4CCN(C)CC4)C3)c3ccccc3)c3cc(C#N)ccc32)cc1 (stereo partly drawn) [Example 193, 1-(4-Methoxybenzenesulfonyl)-3-{2-[(S)-3-(4-methylpiperazin-1-yl)piperidin-1-yl]-2-oxo-1-phenylethyl}-2-oxo-2,3-dihydro-1H-benzimidazole-5-carbonitrile] | < 100 |
| COc1ccc(S(=O)(=O)n2c(=O)n(C(C(=O)N3CCC[C@H](N4CCNCC4)C3)c3ccccc3)c3cc(C#N)ccc32)cc1 (stereo partly drawn) [Example 195, 1-(4-Methoxybenzenesulfonyl)-2-oxo-3-[2-oxo-1-phenyl-2-((S)-3-piperazin-1-ylpiperidin-1-yl)ethyl]-2,3-dihydro-1H-benzimidazole-5-carbonitrile] | < 100 |
| CCCN1CCN([C@H]2CCN(C(=O)C(c3ccccc3)n3c(=O)n(S(=O)(=O)c4ccc(OC)cc4OC)c4ccc(C#N)cc43)C2)CC1 (stereo partly drawn) [Example 199, 1-(2,4-Dimethoxybenzenesulfonyl)-2-oxo-3-{2-oxo-1-phenyl-2-[(S)-3-(4-propylpiperazin-1-yl)pyrrolidin-1-yl]ethyl}-2,3-dihydro-1H-benzimidazole-5-carbonitrile] | < 100 |
| CCCN1CCN([C@H]2CCN(C(=O)C(c3ccccc3)n3c(=O)n(S(=O)(=O)c4cccc5cccnc45)c4ccc(C#N)cc43)C2)CC1 (stereo partly drawn) [Example 200, 2-oxo-3-{2-oxo-1-phenyl-2-[(S)-3-(4-propylpiperazin-1-yl)pyrrolidin-1-yl]-ethyl}-1-(quinoline-8-sulfonyl)-2,3-dihydro-1H-benzimidazole-5-carbonitrile] | 500 to 10000 |
| CCCN1CCN([C@H]2CCN(C(=O)C(c3ccccc3)n3c(=O)n(S(=O)(=O)c4cccs4)c4ccc(C#N)cc43)C2)CC1 (stereo partly drawn) [Example 201, 2-oxo-3-{2-oxo-1-phenyl-2-[(S)-3-(4-propylpiperazin-1-yl)pyrrolidin-1-yl]-ethyl}-1-(thiophene-2-sulfonyl)-2,3-dihydro-1H-benzimidazole-5-carbonitrile] | 100 to 500 |
| CCCN1CCN([C@H]2CCN(C(=O)C(c3ccccc3)n3c(=O)n(S(=O)(=O)c4ccccc4)c4ccc(C#N)cc43)C2)CC1 (stereo partly drawn) [Example 202, 1-Benzenesulfonyl-2-oxo-3-{2-oxo-1-phenyl-2-[(S)-3-(4-propylpiperazin-1-yl)-pyrrolidin-1-yl]ethyl}-2,3-dihydro-1H-benzimidazole-5-carbonitrile] | 100 to 500 |
| CCCN1CCN([C@H]2CCN(C(=O)C(c3ccccc3)n3c(=O)n(S(=O)(=O)c4ccsc4)c4ccc(C#N)cc43)C2)CC1 (stereo partly drawn) [Example 203, 2-oxo-3-{2-oxo-1-phenyl-2-[(S)-3-(4-propylpiperazin-1-yl)pyrrolidin-1-yl]-ethyl}-1-(thiophene-3-sulfonyl)-2,3-dihydro-1H-benzimidazole-5-carbonitrile] | < 100 |
| CCCN1CCN([C@H]2CCN(C(=O)C(c3ccccc3)n3c(=O)n(S(=O)(=O)c4ccc(C)cn4)c4ccc(C#N)cc43)C2)CC1 (stereo partly drawn) [Example 204, 1-(5-Methylpyridine-2-sulfonyl)-2-oxo-3-{2-oxo-1-phenyl-2-[(S)-3-(4-propylpiperazin-1-yl)pyrrolidin-1-yl]ethyl}-2,3-dihydro-1H-benzimidazole-5-carbonitrile] | 100 to 500 |
